Test results taken from patent EP2468882A1, “Aurora kinase polypeptides for identifying fungicidal compounds” (Bayer CropScience AG, priority 2010, dated 2012).

Columns and labels:
[1] = molecular target: Komplex aus SEQ ID NO: 12 und SEQ ID NO: 16 (Mycosarcoma maydis (Ustilago maydis), UniProt A0A0D1E894); test: IMAP fluorescence polarisation assay, inhibition of Aurora kinase (AK/AKA complex); assay type: biochemical, U. maydis; conditions: final enzyme concentration 2 ng/µl, final ATP 35 µM, reaction time 50 min
From the text: Assay 3: Für den kommerziell erhältlichen IMAP Assay (Molecular Devices) sind 2 Substrate für humane Aurorakinasen (Kemptide, Cat #R7331, Sequenz 5TAMRA-LRRASLG-OH und PKAtide, Cat #R7250, Lot #130188, Sequenz 5FAM-GRTGRRNSI-NH2) kommerziell erwerbbar. Der Assay wurde nach Herstellerangaben durchgeführt. • IMAP Progressive Binding Reagent: Cat #R7284, Lot #143859 • IMAP Progressive Binding Buffer A: Cat #R7285, Lot #42898 • IMAP 5x Reaction Buffer: Cat #R7206, Lot #33060
Der IMAP Fluoreszenz-Polarisations-Assay (Molecular Devices) beruht auf der spezifschen, hochafmen Interaktion zwischen Phosphatgruppen und trivalenten Metallionen. Durch die Kinasereaktion wird ein fluoreszentes Substrat phosphoryliert, welches daraufhin von den in der Stop-Lösung enthaltenen Metall-Kügelchen spezifisch gebunden wird. Durch diese Interaktion erhöht sich die Fluoreszenzpolarisation, was die Bestimmung der Kinaseaktivität ermöglicht. Der Assay wurde nach Angaben des Herstellers wie folgt ausgeführt: • 1 Vol. Inhibitor in 4% DMSO bzw. 4% DMSO • 1 Vol. Enzymlösung • 2 Vol. ATP/Substrat • 12 Vol. Stoplösung • Inkubation bei RT 30 min.
Enzymlösung: z. […]

[2] = tested on: U. maydis; test: ED50 determination, growth inhibition of U. maydis in liquid culture; assay type: cell-based; conditions: concentration at which growth in liquid culture is inhibited by 50%; 3 days, 20°C, OD at 600 nm
Description: Der ED50 Wert ist die Konzentration einer Verbindung, bei der das Wachstum von U. maydis in Flüssigkultur zu 50% gehemmt wird. Verbindungen für ED50-Bestimmungen wurden in Methanol + 4 g/l Emulgator (z. B. PS 16 von Bayer AG) zu 666,67facher Endkonzentration gelöst. 15 µl jeder Verbindung werden in 7 Konzentrationen bei getrocknet. Flüssigkulturen von U. maydis in Difco Potato Dextrose Broth (BD, Cat No #254920) wurden auf eine OD600 ~ 0,1 eingestellt und je 200 µl dieser Suspension zugegeben. Die Kulturen wurden 3 Tage bei 20°C, 600 Upm und 80% Luftfeuchte inkubiert. Anschließend wurde die OD bei 600 nm bestimmt und gegen die Inhibitor-Konzentration der Verbindung 1 aufgetragen. Als positive Kontrolle wurde Euparen (Dichlorfluarid; CAS 1085-98-9) verwendet, als negative Kontrolle Methanol + PS 16 ohne Inhibitor. Aus der gemessenen OD600 wurde der ED50-Wert bestimmt (Abb. 5). Der ED50 Wert der Verbindung 1 wurde zu 21,8 ppm ermittelt, der ED50 Wert von Dichlorfluarid wurde zu 1 ppm ermittelt. [formula] [formula] [formula] [formula] [formula] [formula] [formula] [formula] [formula] [formula] [formula] [formula] [formula] [formula] [formula] [formula] [formula] [formula] [formula] [formula] [formula] [formula] [formula] [formula] [formula] [formula] [formula] [formula]

Komplex aus SEQ ID NO: 12 und SEQ ID NO: 16, sequence (A0A0D1E894 entry or part of it): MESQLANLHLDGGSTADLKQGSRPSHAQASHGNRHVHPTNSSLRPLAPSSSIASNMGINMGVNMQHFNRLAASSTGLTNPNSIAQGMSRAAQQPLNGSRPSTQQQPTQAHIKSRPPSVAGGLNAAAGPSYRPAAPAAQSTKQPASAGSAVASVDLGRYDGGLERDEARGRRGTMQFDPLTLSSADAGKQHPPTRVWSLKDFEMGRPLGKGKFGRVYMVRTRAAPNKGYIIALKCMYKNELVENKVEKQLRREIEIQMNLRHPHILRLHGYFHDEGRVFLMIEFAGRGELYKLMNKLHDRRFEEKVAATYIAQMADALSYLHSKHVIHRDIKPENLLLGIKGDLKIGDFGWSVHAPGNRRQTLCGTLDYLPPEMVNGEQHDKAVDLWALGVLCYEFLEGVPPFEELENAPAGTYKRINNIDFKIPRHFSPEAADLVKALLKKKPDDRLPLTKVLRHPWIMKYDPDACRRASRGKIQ

| Compound | IC50 [1] [nM] | ED50 Wert [2] |
| --- | --- | --- |
| COCCOc1ccc(Nc2ncc(Cl)c(NC3CC3)n2)cc1 [Verbindung 1] | 8.8 | 21,8 ppm |
| CN[C@@H]1C[C@H]2O[C@@](C)([C@@H]1OC)n1c3ccccc3c3c4c(c5c6ccccc6n2c5c31)C(=O)NC4 [Staurosporin] | 2.1 | – |
| CN(C)S(=O)(=O)N(SC(F)(Cl)Cl)c1ccccc1 [Dichlorfluarid] | – | 1 ppm |
